In PubChem BioAssay (NCI) one finds TGI data, which are given here for two compounds.

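48-hour exposure; five concentrations; linearly interpolated endpoints. TGI marks complete inhibition of growth.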 Bounds are passed on as bounds.

Test systems include CAKI-1 renal; HL-60(TB) leukemia; HOP-62 NSCLC; HOP-92 NSCLC; IGROV1 ovarian; KM12 colon; MALME-3M melanoma; MOLT-4 leukemia; NCI-H226 lung; OVCAR-8 ovarian; RPMI-8226 leukemia; SF-268 CNS; SK-MEL-28 melanoma; SK-MEL-5 melanoma; SK-OV-3 ovarian; SNB-19 CNS; SW-620 colon; U251 CNS; XF 498 CNS.
What all share (assay): NCI-60 cell line screen, 48 h

Consider `O=C(CSc1c2ccccc2nc2ccccc12)Nc1ccccc1-c1ccccc1NC(=O)CSc1c2ccccc2nc2ccccc12`, for which the TGI in the assay on CAKI-1 renal was greater than 73.8 µM; in the assay with HL-60(TB) leukemia, 18.7 µM; in the assay with HOP-62 NSCLC, greater than 63.3 µM; in the assay on HOP-92 NSCLC it was 96.1 µM; in the assay with IGROV1 ovarian, 42.8 µM; in the assay on KM12 colon it was greater than 62 µM. The TGI in the assay on MALME-3M melanoma is greater than 91.3 µM; with MOLT-4 leukemia, greater than 54.4 µM; with NCI-H226 lung, greater than 80.5 µM; in the assay with OVCAR-8 ovarian it was greater than 86.8 µM; in the assay with RPMI-8226 leukemia, 30.4 µM; with SF-268 CNS it was greater than 69.4 µM. Moreover, the TGI in the assay on SK-MEL-28 melanoma is 52 µM; in the assay with SK-MEL-5 melanoma, 28.3 µM; with SK-OV-3 ovarian, greater than 100 µM; in the assay on SNB-19 CNS it was greater than 61.7 µM; with SW-620 colon, greater than 100 µM; with U251 CNS, greater than 100 µM. Moreover, the TGI with XF 498 CNS came to 46.2 µM.
For `CC(C)=CC1CC(=[N+]=[N-])C(=O)C1(C)C` (stereo not drawn), the TGI in the assay on CAKI-1 renal, in the assay on HL-60(TB) leukemia, with HOP-62 NSCLC, with HOP-92 NSCLC, in the assay on IGROV1 ovarian and in the assay on KM12 colon was greater than 100 µM each time. For the same compound, the TGI with MALME-3M melanoma is greater than 100 µM; in the assay with MOLT-4 leukemia, greater than 100 µM; with NCI-H226 lung, greater than 100 µM; in the assay with OVCAR-8 ovarian, greater than 100 µM; with RPMI-8226 leukemia, greater than 74.6 µM; in the assay with SF-268 CNS it was greater than 100 µM. Also, the TGI in the assay on SK-MEL-28 melanoma, in the assay on SK-MEL-5 melanoma, in the assay on SK-OV-3 ovarian, in the assay on SNB-19 CNS, with SW-620 colon and in the assay with U251 CNS was greater than 100 µM each time. Also, in the assay with XF 498 CNS, the TGI is greater than 100 µM.
